Reference: patent publication US20250120929A1, “METHOD OF TREATING VIRUS-ASSOCIATED INFECTION USING ACETAMINOPHEN” (Sanbiozi Medical Science Inc., priority 2023, published 2025)

Columns and labels:
PRRS virus (PRRSV2) [1] = assay: In vivo test of acetaminophen against PRRS-infected piglet; conditions: 80 mL acetaminophen therapy three times orally
Source text: (§1) In this embodiment, the weaned piglets were selected according to their PRRS syndromes. The three piglets were randomly selected in accordance with the professional experience on the syndromes of PRRS and the […] principles of animal test were followed as well. Three infected piglets were proceeded for preliminary test of the effectiveness of antiviral drugs of PRRS.
(§2) Three infected piglets raised in an isolated pen of the same pig house. Eighty milliliter acetaminophen therapy was given three times orally. Their blood samples were test weekly. Unfortunately, piglet 1 was unable to make over the first week. The other 2 piglets were able make over the process.

MHV-A59 = assay: In vivo test of acetaminophen against MHV-infected mice; design: species or system C57BL/6 mice; conditions: 0.25 mg/mL acetaminophen solution daily via oral gavage, MHV-A59 5×10^6 PFU/mouse i.p.
Source text: The present invention utilized the Mouse Hepatitis Virus (MHV) and swine virus PRRS as the infectious agents to evaluate the effectiveness of acetaminophen in vivo. We aimed to perform mouse and piglet survival experiments to completely assess acetaminophen against virus infection as a preclinical evaluation.
Intraperitoneal administration of MHV-A59 with high titer (5×10^6 PFU/mouse) on C57BL/6 mice to cause a high mortality rate. The MHV-infected mice were grouped as follows: 1. PBS vehicle control; 2. 0.25 mg/mL of acetaminophen solution treatment groups followed by treating acetaminophen daily via oral gavage. The viral administration cause loss of body weights on mice. […] These animal data strongly argue the potential application of acetaminophen in developing to an antiviral agent.

Mv1Lu cells = assay: In vitro test for cytotoxicity of acetaminophen; format: cell-based, mink; conditions: five days of incubation; concentration as high as 1000 μg/mL
Procedure: Specifically, mink lung epithelial cells, Mv1Lu, were treated with acetaminophen.

PRRS virus (PRRSV2) [2] = assay: In vivo test of acetaminophen against PRRS-infected piglet; design: unit not given here
Source text: as §1, §2

PRRS virus (PRRSV2) [3] = assay: as above; design: key: −: Negative; ±: Virus was detected at very low concentrations
Source text: as §1, §2

## CC(=O)Nc1ccc(O)cc1 [acetaminophen]
PRRS virus (PRRSV2) [1]; piglets 2 and 3
  virus concentration in the body: decreased
PRRS virus (PRRSV2) [1]; three infected piglets
  survival of PRRS-infected piglets: piglets 2 and piglet 3 survived
MHV-A59; compared to MHV-only mice
  body weight of MHV-infected mice: significantly retained the mouse weights
MHV-A59; virus vehicle control 100% death rate
  survival rate (printed as mortality rate) of MHV-infected mice: 50%
Mv1Lu cells
  cytotoxicity on Mv1Lu cells: no significant cytotoxicity
PRRS virus (PRRSV2) [2]; Piglet 1, test 1 (weekly blood sample)
  Concentration of PRRSV2 by RT-PCR: 7.7 × 10 ^5
PRRS virus (PRRSV2) [2]; Piglet 2, test 2 (weekly blood sample), weekly blood test 2
  Concentration of PRRSV2 by RT-PCR: 1.3 × 10^3
PRRS virus (PRRSV2) [2]; Piglet 3, test 1 (weekly blood sample), weekly blood test 1
  Concentration of PRRSV2 by RT-PCR: 8.2 × 10 ^4
PRRS virus (PRRSV2) [2]; Piglet 3, test 3 (weekly blood sample), weekly blood test 3
  Concentration of PRRSV2 by RT-PCR: 2.9 × 10 ^2
PRRS virus (PRRSV2) [3]; Piglet 2, test 1 (weekly blood sample), weekly blood test 1
  Concentration of PRRSV2 by RT-PCR: −
PRRS virus (PRRSV2) [3]; Piglet 2, test 3 (weekly blood sample), weekly blood test 3
  Concentration of PRRSV2 by RT-PCR: −
PRRS virus (PRRSV2) [3]; Piglet 3, test 2 (weekly blood sample), weekly blood test 2
  Concentration of PRRSV2 by RT-PCR: ±
